The target in the assay is SHP2 (Homo sapiens (Human), UniProt Q06124). Briefly: SHP2 allosteric inhibition assay (DiFMUP prompt fluorescence). The settings on record: 0.5 nM SHP2 activated with 0.5 μM peptide IRS1_pY1172(dPEG8)pY1222; substrate DiFMUP; 25° C. Type of assay: biochemical.
Sequence of SHP2 (Q06124 whole entry): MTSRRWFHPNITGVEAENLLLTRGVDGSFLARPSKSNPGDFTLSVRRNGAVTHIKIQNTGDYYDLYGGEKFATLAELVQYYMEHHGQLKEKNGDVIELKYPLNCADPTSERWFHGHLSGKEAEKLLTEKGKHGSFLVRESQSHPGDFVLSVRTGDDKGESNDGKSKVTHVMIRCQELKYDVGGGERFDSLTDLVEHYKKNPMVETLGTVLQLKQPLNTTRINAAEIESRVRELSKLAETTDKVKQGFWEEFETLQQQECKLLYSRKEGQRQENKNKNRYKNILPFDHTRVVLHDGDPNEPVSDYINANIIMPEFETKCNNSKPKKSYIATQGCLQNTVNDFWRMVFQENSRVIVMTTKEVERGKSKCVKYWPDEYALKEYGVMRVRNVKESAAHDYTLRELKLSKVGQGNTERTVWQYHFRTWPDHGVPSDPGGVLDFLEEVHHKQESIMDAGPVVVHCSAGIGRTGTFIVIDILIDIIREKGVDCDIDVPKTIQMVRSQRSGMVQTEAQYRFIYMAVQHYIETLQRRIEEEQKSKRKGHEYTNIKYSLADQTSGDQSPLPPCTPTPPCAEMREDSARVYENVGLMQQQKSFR
Usually IC50 stands for the midpoint of a concentration-inhibition curve. On to `C[C@@H]1OCC2(CCN(c3cc(N)c(Sc4cccnc4C(F)(F)F)c(=O)[nH]3)CC2)[C@@H]1N` [Example 88, 4-amino-6-((3S,4S)-4-amino-3-methyl-2-oxa-8-azaspiro[4.5]decan-8-yl)-3-((2-(trifluoromethyl)pyridin-3-yl)thio)pyridin-2(1H)-one], for which the half-inhibitory concentration (IC50) worked out at 42 nM.

For the compound `COc1cccc(Sc2c(N)nc(N3CCC4(CC3)CO[C@@H](C)[C@H]4N)n(C)c2=O)c1Cl` [Example 20], the midpoint of inhibition, the IC50, lay at 17 nM.

With `CCOc1nccc(Sc2cnc(N3CCC4(CC3)CO[C@@H](C)[C@H]4N)n(C)c2=O)c1Cl` [Example 102], the IC50 stood at 10 nM.

As for `C[C@H]1C[C@@H](N)C2(CCN(c3ncc(Sc4cc(N)ncc4Cl)c(=O)n3C)CC2)C1` [Example 110], the midpoint of inhibition, the IC50, lay at 16 nM.

In the case of `C[C@H]1C[C@@H](N)C2(CCN(c3nc(N)c(-c4ccc(Cl)cc4)c(=O)n3C)CC2)C1` [Example 172], 174 nM corresponded to half-maximal inhibition (IC50).

Take `C[C@H]1C[C@@H](N)C2(CCN(c3nc(N)c(Sc4ccnc(N)c4Cl)c(=O)n3C)CC2)C1` [Example 21]: the half-inhibitory concentration (IC50) was found to be 28 nM.

As for `Cn1c(N2CCC(C)(CN)CC2)ncc(Sc2ccccc2C(F)(F)F)c1=O` [Example 108], inhibition was half-maximal at 500 nM (IC50).

As for `C[C@@H]1OCC2(CCN(c3nc(N)c(-c4ccccc4)c(=O)n3C)CC2)[C@@H]1N` [Example 138], half-maximal inhibition (IC50) was put at 24 nM.

As to `Cn1c(N2CCC3(CC2)CC(F)(F)C[C@H]3N)nc(N)c(Sc2ccccc2Cl)c1=O` [Example 85], the concentration for half-maximal inhibition (IC50) was determined as 77 nM.

With `C[C@H]1C[C@@H](N)C2(CCN(c3ncc(Sc4cccnc4C(F)(F)F)c(=O)n3C)CC2)C1` [Example 114], the IC50 turned out to be 50 nM.

In the case of `C[C@H]1C[C@@H](N)C2(CCN(c3nc(N)c(-c4cccc(F)c4F)c(=O)n3C)CC2)C1` [Example 126], half-maximal inhibition (IC50) required 12 nM.

Compound `Cn1c(N2CCC(C)(CN)CC2)nc(N)c(Sc2ccccc2OC(F)(F)F)c1=O` [Example 46] gave a half-maximal inhibitory concentration (IC50) of 89 nM.

`Cn1c(N2CCC(C)(CN)CC2)nc(N)c(Sc2cccc3ccccc23)c1=O` [Example 55] gave a half-maximal inhibitory concentration (IC50) of 45 nM.

Regarding `Cc1ccc(-c2c(N)nc(N3CCC4(CC3)CO[C@@H](C)[C@H]4N)n(C)c2=O)cc1Cl` [Example 123, 6-amino-2-((3S,4S)-4-amino-3-methyl-2-oxa-8-azaspiro[4.5]decan-8-yl)-5-(3-chloro-4-methylphenyl)-3-methylpyrimidin-4(3H)-one], it took 14 nM to reach half-maximal inhibition (IC50).

The compound `C[C@@H]1OCC2(CCN(c3nc(N)c(-c4cncc(Cl)c4)c(=O)n3C)CC2)[C@@H]1N` [Example 171] registered a concentration for half-maximal inhibition (IC50) of 172 nM.

`C[C@H]1C[C@@H](N)C2(CCN(c3nc(N)c(Sc4ccnc(N5CCCC5)c4Cl)c(=O)n3C)CC2)C1` [Example 62] registered an IC50 of 25 nM.

As to `C[C@@H]1OCC2(CCN(c3nc(N)c(-c4ccc(F)c(Cl)c4)c(=O)n3C)CC2)[C@@H]1N` [Example 158], the IC50 was 53 nM.

Turning to `C[C@@H]1OCC2(CCN(c3ncc(-c4cccc(Cl)c4Cl)c(=O)[nH]3)CC2)[C@@H]1N` [Example 201], 3340 nM corresponded to half-maximal inhibition (IC50).

In turn, `COc1ccc(-c2c(N)nc(N3CCC4(CC3)CO[C@@H](C)[C@H]4N)n(C)c2=O)cc1` [Example 159] came in with a half-maximal inhibitory concentration (IC50) of 56 nM.

For the compound `C[C@@H]1OCC2(CCN(c3nc(N)c(Sc4ccnc(N5CCCC5)c4Cl)c(=O)n3C)CC2)[C@@H]1N` [Example 28], the IC50 is 28 nM.

Compound `CC[C@@H]1OCC2(CCN(c3nc(N)c(-c4ccccc4)c(=O)n3C)CC2)[C@@H]1N` [Example 144] had a 50% inhibitory concentration (IC50) of 34 nM.

`Cn1c(N2CCC3(CC2)COC[C@H]3N)nc(N)c(-c2ccccc2)c1=O` [Example 189] had an IC50 of 41 nM.

On to `C[C@@H]1OCC2(CCN(c3nc(N)c(-c4ccc(C5CC5)cc4)c(=O)n3C)CC2)[C@@H]1N` [Example 160], for which the IC50 is 63 nM.

In turn, `C[C@@H]1OCC2(CCN(c3nc(N)c(-c4cc(Cl)cc(Cl)c4Cl)c(=O)n3C)CC2)[C@@H]1N` [Example 180] had an IC50 of 515 nM.

Regarding `Cn1c(N2CCC(C)(CN)CC2)nc(N)c(Sc2cccnc2C(F)(F)F)c1=O` [Example 7], the IC50 is 109 nM.

The compound `CC1(CN)CCN(c2ccc(Sc3cccc(Cl)c3Cl)c(=O)[nH]2)CC1` [Example 118, 6-(4-(aminomethyl)-4-methylpiperidin-1-yl)-3-((2,3-dichlorophenyl)thio)pyridin-2(1H)-one] returned a 50% inhibitory concentration (IC50) of 108 nM.

`COc1nccc(Sc2cnc(N3CCC4(CC3)CO[C@@H](C)[C@H]4N)n(C)c2=O)c1Cl` [Example 105]: the half-inhibitory concentration (IC50) was 8 nM.

`C[C@@H]1CC2(CCN(c3nc(N)c(-c4ccccc4)c(=O)n3C)CC2)[C@H](N)[C@H]1F` [Example 188] showed an IC50 of 15 nM.

`Cn1c(N2CCC3(CC2)C[C@@H](C(F)(F)F)C[C@H]3N)nc(N)c(Sc2cccnc2C(F)(F)F)c1=O` [Example 84] came in with an IC50 of 72 nM.

Compound `C[C@@H]1OCC2(CCN(c3ncc(Sc4ccnc(NC5CC5)c4Cl)c(=O)n3C)CC2)[C@@H]1N` [Example 107] came in with an IC50 of 146 nM.

The compound `C[C@@H]1OCC2(CCN(c3nc(N)c(Sc4ccnc(N)c4Cl)c(=O)n3C)CC2)[C@@H]1N` [Example 3] came in with an IC50 of 44 nM.

In turn, `Cn1c(N2CCC3(CC2)COC[C@H]3N)nc(N)c(Sc2cccnc2C(F)(F)F)c1=O` [Example 63] gave a half-inhibitory concentration (IC50) of 34 nM.

In turn, `C[C@@H]1OCC2(CCN(c3nc(N)c(Sc4cccc5c4OCO5)c(=O)n3C)CC2)[C@@H]1N` [Example 78] came in with an IC50 of 12 nM.

Turning to `Cn1c(N2CCC3(CC2)C[C@H](F)C[C@H]3N)nc(N)c(-c2cccc(Cl)c2Cl)c1=O` [Example 155], half-maximal inhibition (IC50) required 48 nM.

`C[C@@H]1OCC2(CCN(c3nc(N)c(Sc4ccnc(C(F)(F)F)c4Cl)c(=O)n3C)CC2)[C@@H]1N` [Example 59] gave an IC50 of 43 nM.

Compound `COc1cccc(Sc2c(N)nc(N3CCC(C)(CN)CC3)n(C)c2=O)c1Cl` [Example 9] yielded an IC50 of 47 nM.

With `COc1ccc(-c2c(N)nc(N3CCC4(CC3)CO[C@@H](C)[C@H]4N)n(C)c2=O)cc1Cl` [Example 162], half-maximal inhibition (IC50) required 66 nM.

In turn, `Cn1c(N2CCC3(CCC[C@H]3N)CC2)nc(N)c(Sc2cccnc2C(F)(F)F)c1=O` [Example 14] gave a half-inhibitory concentration (IC50) of 98 nM.

With `Cc1ncccc1Sc1c(N)nc(N2CCC3(CC2)CO[C@@H](C)[C@H]3N)n(C)c1=O` [Example 80], the IC50 came out at 68 nM.

The compound `C[C@@H]1OCC2(CCN(c3nc(N)c(-c4ccc(F)c(F)c4)c(=O)n3C)CC2)[C@@H]1N` [Example 133] gave a 50% inhibitory concentration (IC50) of 17 nM.

In the case of `Cn1c(N2CCC3(CC2)CC(F)(F)C[C@H]3N)nc(N)c(Sc2ccc(F)cc2Cl)c1=O` [Example 82], the 50% inhibitory concentration (IC50) was 25 nM.

In the case of `C[C@@H]1OCC2(CCN(c3nc(N)c(-c4ccc(Cl)c(F)c4)c(=O)n3C)CC2)[C@@H]1N` [Example 141], the half-inhibitory concentration (IC50) was determined as 26 nM.

`COc1ccc(Sc2c(N)nc(N3CCC4(CC3)CO[C@@H](C)[C@H]4N)n(C)c2=O)cc1F` [Example 79] registered a half-inhibitory concentration (IC50) of 370 nM.

In turn, `Cn1c(N2CCC(C)(CN)CC2)nc(N)c(Sc2ccc(Cl)cc2Cl)c1=O` [Example 56] had a concentration for half-maximal inhibition (IC50) of 170 nM.

Compound `C[C@@H]1OCC2(CCN(c3nc(N)c(-c4ccccn4)c(=O)n3C)CC2)[C@@H]1N` [Example 182] registered an IC50 of 1060 nM.

As for `Cn1c(N2CCC(C)(CN)CC2)nc(N)c(Sc2ccccc2Cl)c1=O` [Example 6], the IC50 turned out to be 286 nM.

The compound `C[C@H]1C[C@@H](N)C2(CCN(c3nc(N)c(-c4ccc(SC(F)(F)F)cc4)c(=O)n3C)CC2)C1` [Example 134] came in with a half-inhibitory concentration (IC50) of 19 nM.

As for `Cn1c(N2CCC(C)(CN)CC2)nc(N)c(Sc2cccc3cccnc23)c1=O` [Example 57], the 50% inhibitory concentration (IC50) turned out to be 279 nM.

As for `Cc1ccc(-c2c(N)nc(N3CCC4(CC3)C[C@@H](C)C[C@H]4N)n(C)c2=O)cc1Cl` [Example 124], the concentration for half-maximal inhibition (IC50) turned out to be 10 nM.

On to `CC[C@@H]1OCC2(CCN(c3nc(N)c(Sc4ccnc(C)c4Cl)c(=O)n3C)CC2)[C@@H]1N` [Example 86], for which the IC50 was determined as 22 nM.

Consider `Cn1c(N2CCC3(CC2)CC(F)(F)C[C@H]3N)nc(N)c(-c2cccc(Cl)c2Cl)c1=O` [Example 137], for which the concentration for half-maximal inhibition (IC50) came out at 22 nM.

With `COc1ccc(-c2c(N)nc(N3CCC4(CC3)CO[C@@H](C)[C@H]4N)n(C)c2=O)cc1F` [Example 157], the midpoint of inhibition, the IC50, lay at 52 nM.

As to `COc1cccc(Sc2cnc(N3CCC4(CC3)CO[C@@H](C)[C@H]4N)n(C)c2=O)c1Cl` [Example 106], inhibition was half-maximal at 30 nM (IC50).

Compound `Cn1c(N2CCC3(CC2)COC[C@H]3N)nc(N)c(-c2cccc(Cl)c2Cl)c1=O` [Example 190] had an IC50 of 69 nM.

Consider `C[C@@H]1OCC2(CCN(c3nc(N)c(Sc4ccccc4)c(=O)n3C)CC2)[C@@H]1N` [Example 26], for which the midpoint of inhibition, the IC50, lay at 82 nM.

Turning to `C[C@H]1C[C@@H](N)C2(CCN(c3nc(N)c(Sc4cc(N)nc(Cl)c4Cl)c(=O)n3C)CC2)C1` [Example 70], the IC50 was found to be 11 nM.

Take `CCOc1nccc(Sc2cnc(N3CCC4(CC3)CO[C@@H](C)[C@H]4N)[nH]c2=O)c1Cl` [Example 95]: the IC50 amounted to 23 nM.

As for `C[C@@H]1OCC2(CCN(c3nc(N)c(-c4cc(Cl)cc(Cl)c4)c(=O)n3C)CC2)[C@@H]1N` [Example 179], it took 421 nM to reach half-maximal inhibition (IC50).

Regarding `Cn1c(N2CCC(C)(CN)CC2)nc(N)c(Sc2ccccc2Br)c1=O` [Example 45], the IC50 turned out to be 137 nM.

In turn, `C[C@@H]1OCC2(CCN(c3nc(N)c(Sc4ccncc4C(F)(F)F)c(=O)n3C)CC2)[C@@H]1N` [Example 61] returned a half-inhibitory concentration (IC50) of 93 nM.

In turn, `C[C@@H]1OCC2(CCN(c3nc(N)c(-c4ccc(N5CCOCC5)cc4)c(=O)n3C)CC2)[C@@H]1N` [Example 185] displayed an IC50 of 2120 nM.

In the case of `C[C@@H]1OCC2(CCN(c3nc(N)c(-c4cccc(Cl)c4)c(=O)n3C)CC2)[C@@H]1N` [Example 135], 19 nM corresponded to half-maximal inhibition (IC50).

Turning to `Cc1nc(N2CCC3(CC2)CO[C@@H](C)[C@H]3N)n(C)c(=O)c1Sc1ccnc(N)c1Cl` [Example 121, 5-((2-amino-3-chloropyridin-4-yl)thio)-2-((3S,4S)-4-amino-3-methyl-2-oxa-8-azaspiro[4.5]decan-8-yl)-3,6-dimethylpyrimidin-4(3H)-one], the 50% inhibitory concentration (IC50) is 60 nM.

On to `Cn1c(N2CCC3(CC[C@@H]3N)CC2)ncc(Sc2cccc(Cl)c2Cl)c1=O` [Example 104], for which the IC50 was determined as 109 nM.

The values above are taken from US10308660B2, “Compounds and compositions for inhibiting the activity of SHP2” (Novartis AG, priority 2015, dated 2019).
